# Source: US12060347B2 (BRISTOL-MYERS SQUIBB COMPANY, priority 2016, dated 2024)
# Biological target: T1, human PAR4 (Homo sapiens, UniProt Q96RI0)
# T1 construct: expressed in transfected cells; host or cells: HEK293 PAR4 Clone 1.2A (BMS Arctic ID 383940)
# T1 sequence (Q96RI0 18-385): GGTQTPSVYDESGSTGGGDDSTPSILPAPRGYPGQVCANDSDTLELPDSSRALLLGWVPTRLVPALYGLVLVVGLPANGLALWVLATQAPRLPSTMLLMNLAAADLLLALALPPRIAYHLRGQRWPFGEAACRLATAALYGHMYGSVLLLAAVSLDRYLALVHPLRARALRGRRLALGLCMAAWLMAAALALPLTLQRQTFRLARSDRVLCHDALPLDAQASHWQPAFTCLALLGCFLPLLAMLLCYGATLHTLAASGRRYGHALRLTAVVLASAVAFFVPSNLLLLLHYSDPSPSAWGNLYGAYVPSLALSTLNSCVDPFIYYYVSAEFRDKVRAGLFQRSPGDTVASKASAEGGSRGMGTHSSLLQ
# Test: PAR4 FLIPR assay: antagonism of agonist-peptide-induced calcium mobilization in PAR4-expressing HEK293 cells
# Assay type: cell-based
# Conditions: H-Ala-Phe(4-F)-[…]NH2-induced intracellular calcium mobilization, 11-point curves
row,IC50 [nM],SMILES
1,2,"COc1cnc2c(-c3cc4cc(OC)c(F)cc4o3)cc(CO)cc2n1 [Example 125, (8-(6-fluoro-5-methoxybenzofuran-2-yl)-3-methoxyquinoxalin-6-yl)methanol]"
2,1.2,"COc1cnc2c(-c3cc4cc(OCCOC(=O)Nc5ccnc(C)c5)c(F)cc4o3)cc(CO)cc2n1 [Example 126, 2-((6-fluoro-2-(7-(hydroxymethyl)-2-methoxyquinoxalin-5-yl)benzofuran-5-yl)oxy)ethyl (2-methylpyridin-4-yl)carbamate]"
3,8.3,COc1ccc2nc(-c3cc(CO)cc4nc(OC)cnc34)sc2c1 [Example 127]
4,2.2,"COc1cnc2c(-c3nc4c(C)cc(OCCOC(=O)Nc5ccc(C)nc5)cc4s3)cc(CO)cc2n1 [Example 128, 2-(2-(7-(hydroxymethyl)-2-methoxyquinoxalin-5-yl)-4-methylbenzo[d]thiazol-6-yloxy)ethyl 6-methylpyridin-3-ylcarbamate]"
5,3.2,"COc1cnc2c(-c3nc4c(C)cc(OCCOC(=O)Nc5ccnc(C)c5)cc4s3)cc(CO)cc2n1 [Example 129, 2-(2-(7-(hydroxymethyl)-2-methoxyquinoxalin-5-yl)-4-methylbenzo[d]thiazol-6-yloxy)ethyl 2-methylpyridin-4-ylcarbamate]"
6,460,"COc1ccc2c(-c3cc4ccccc4o3)nc(C)cc2n1 [Example 130, 5-(benzofuran-2-yl)-2-methoxy-7-methyl-1,6-naphthyridine]"
7,890,"C=Cc1cnc2c(-c3cc4ccccc4o3)cc(C)cc2n1 [Example 131, 5-(benzofuran-2-yl)-7-methyl-2-vinylquinoxaline]"
8,59,"CCc1cnc2c(-c3cc4ccccc4o3)cc(C)cc2n1 [Example 132, 5-(benzofuran-2-yl)-2-ethyl-7-methylquinoxaline]"
9,570,"Cc1ccc(-c2cc3ccccc3o2)c2ncc(OC(F)F)nc12 [Example 133, 5-(benzofuran-2-yl)-2-(difluoromethoxy)-8-methylquinoxaline]"
10,120,"COc1cnc2c(-c3cc4ccccc4o3)nc(C)cc2c1 [Example 134, 8-(benzofuran-2-yl)-3-methoxy-6-methyl-1,7-naphthyridine\]"
11,2200,"Cc1cc(-c2cc3ccccc3o2)c2ncc(-c3ccoc3)nc2c1 [Example 135, 5-(benzofuran-2-yl)-2-(furan-3-yl)-7-methylquinoxaline]"
12,29,"Cc1cc(-c2nc3c(s2)CCC3)c2ncc(OC(F)F)nc2c1 [Example 136, 2-(2-(difluoromethoxy)-7-methylquinoxalin-5-yl)-5,6-dihydro-4H-cyclopenta[d]thiazole]"
13,29,"COc1cnc2c(-c3nc4c(s3)CCCCC4)cc(C)cc2n1 [Example 137, 2-(2-methoxy-7-methylquinoxalin-5-yl)-5,6,7,8-tetrahydro-4H-cyclohepta[d]thiazole]"
14,33,"COc1cnc2c(-c3nc4c(s3)C(O)CCC4)cc(C)cc2n1 (centres unmarked) [Example 138, 2-(2-methoxy-7-methylquinoxalin-5-yl)-4,5,6,7-tetrahydrobenzo[d]thiazol-7-ol]"
15,3.9,"COc1cnc2c(-c3nc4c(s3)C(OC)CCC4)cc(C)cc2n1 (centres unmarked) [Example 139, 7-methoxy-2-(2-methoxy-7-methylquinoxalin-5-yl)-4,5,6,7-tetrahydrobenzo[d]thiazole]"
16,21,"COc1cnc2c(-c3nc4c(s3)CC(OC)CC4)cc(C)cc2n1 (centres unmarked) [Example 140, 6-methoxy-2-(2-methoxy-7-methylquinoxalin-5-yl)-4,5,6,7-tetrahydrobenzo[d]thiazole]"
17,80,"COc1cnc2c(-c3nc4c(s3)CC(C)(C)CC4)cc(C)cc2n1 [Example 141, 2-(2-methoxy-7-methylquinoxalin-5-yl)-6,6-dimethyl-4,5,6,7-tetrahydrobenzo[d]thiazole]"
18,5.6,"COc1cnc2c(-c3nc4c(s3)CC(CCO)C4)cc(C)cc2n1 (centres unmarked) [Example 142, 2-(2-(2-methoxy-7-methylquinoxalin-5-yl)-5,6-dihydro-4H-cyclopenta[d]thiazol-5-yl) ethanol]"
19,36,"COCc1cnc2c(-c3nc4c(s3)C(O)CCC4)cc(C)cc2n1 (centres unmarked) [Example 143, 2-(2-(methoxymethyl)-7-methylquinoxalin-5-yl)-4,5,6,7-tetrahydrobenzo[d]thiazol-7-ol]"
20,0.3,"COCc1cnc2c(-c3nc4c(s3)CCCC4)cc(C)cc2n1 [Example 144, 2-(2-(methoxymethyl)-7-methylquinoxalin-5-yl)-4,5,6,7-tetrahydrobenzo[d]thiazole]"
21,4.5,"COCc1cnc2c(-c3nc4c(s3)C(O)C(C)(C)CC4)cc(C)cc2n1 (centres unmarked) [Example 145, 2-(2-(methoxymethyl)-7-methylquinoxalin-5-yl)-6,6-dimethyl-4,5,6,7-tetrahydrobenzo[d] thiazol-7-ol]"

row,IC50 [nM],SMILES
1,7,"COCc1cnc2c(-c3nc4cnccc4s3)cc(C)cc2n1 [Example 146, 2-(2-(methoxymethyl)-7-methylquinoxalin-5-yl)thiazolo[4,5-c]pyridine]"
2,1.7,COCc1cnc2c(-c3nc4ccc(OC)nc4s3)cc(C)cc2n1 [Example 147]
3,48,"COCc1cnc2c(-c3nc4cccnc4s3)cc(C)cc2n1 [Example 148, 2-(2-(methoxymethyl)-7-methylquinoxalin-5-yl)thiazolo[5,4-b]pyridine]"
4,4.2,"COCc1cnc2c(-c3nc4c(Cl)cncc4s3)cc(C)cc2n1 [Example 149, 7-chloro-2-(2-(methoxymethyl)-7-methylquinoxalin-5-yl)thiazolo[5,4-c]pyridine]"
5,94,"COc1cnc2c(-c3nc4ccc(OC)nc4s3)cc(C)cc2n1 [Example 150, 5-methoxy-2-(2-methoxy-7-methylquinoxalin-5-yl)thiazolo[5,4-b]pyridine]"
6,2000,"COc1cnc2c(-c3nc4c(Cl)cncc4s3)cc(C)cc2n1 [Example 151, 7-chloro-2-(2-methoxy-7-methylquinoxalin-5-yl)thiazolo[5,4-c]pyridine]"
7,38,"COC(=O)c1cc(OC)cc2sc(-c3cc(C)cc4nc(OC)cnc34)nc12 [Example 152, methyl 6-methoxy-2-(2-methoxy-7-methylquinoxalin-5-yl)benzo[d]thiazole-4-carboxylate]"
8,16,"COCc1cnc2c(-c3nc4c(C)cc(OC)cc4s3)nc(C)cc2c1 [Example 153, 6-methoxy-2-(3-(methoxymethyl)-6-methyl-1,7-naphthyridin-8-yl)-4-methylbenzo[d]thiazole]"
9,3.8,"COc1cc(CO)c2nc(-c3cc(C)cc4nc(OC)cnc34)sc2c1 [Example 154, (6-methoxy-2-(2-methoxy-7-methylquinoxalin-5-yl)benzo[d]thiazol-4-yl)methanol]"
10,0.8,"COCc1cnc2c(-c3nc4c(CO)cc(OC)cc4s3)cc(C)cc2n1 [Example 155, (6-methoxy-2-(2-(methoxymethyl)-7-methylquinoxalin-5-yl)benzo[d]thiazol-4-yl) methanol]"
11,1.4,"COCc1cnc2c(-c3nc4c(C(C)O)cc(OC)cc4s3)cc(C)cc2n1 (centres unmarked) [Example 156, 1-(6-methoxy-2-(2-(methoxymethyl)-7-methylquinoxalin-5-yl)benzo[d]thiazol-4-yl) ethanol]"
12,31,"COCc1cnc2c(-c3nc4c(C(C)(C)O)cc(OC)cc4s3)cc(C)cc2n1 [Example 157, 2-(6-methoxy-2-(2-(methoxymethyl)-7-methylquinoxalin-5-yl)benzo[d]thiazol-4-yl) propan-2-ol]"
13,0.7,"COCc1cnc2c(-c3nc4c(C(O)C5CC5)cc(OC)cc4s3)cc(C)cc2n1 (centres unmarked) [Example 158, Cyclopropyl(6-methoxy-2-(2-(methoxymethyl)-7-methylquinoxalin-5-yl)benzo[d]thiazol-4-yl)methanol]"
14,25,"COCc1cnc2c(-c3nc4c(CN(C)C)cc(OC)cc4s3)cc(C)cc2n1 [Example 159, 1-(6-methoxy-2-(2-(methoxymethyl)-7-methylquinoxalin-5-yl)benzo[d]thiazol-4-yl)-N,N-dimethylmethanamine]"
15,1.2,"COc1cc(C(O)C2CC2)c2nc(-c3cc(C)cc4nc(OC)cnc34)sc2c1 (centres unmarked) [Example 160, Cyclopropyl(6-methoxy-2-(2-methoxy-7-methylquinoxalin-5-yl)benzo[d]thiazol-4-yl) methanol]"
16,0.7,"COCc1cnc2c(-c3nc4c(C(O)c5ccccc5)cc(OC)cc4s3)cc(C)cc2n1 (centres unmarked) [Example 161, (6-methoxy-2-(2-(methoxymethyl)-7-methylquinoxalin-5-yl)benzo[d]thiazol-4-yl) (phenyl)methanol]"
17,270,"COCc1cnc2c(-c3nc4c(C(=O)O)cc(OC)cc4s3)cc(C)cc2n1 [Example 162, 6-methoxy-2-(2-(methoxymethyl)-7-methylquinoxalin-5-yl)benzo[d]thiazole-4-carboxylic acid]"
18,1.2,"COCc1cnc2c(-c3nc4c(C(O)C5CCCCC5)cc(OC)cc4s3)cc(C)cc2n1 (centres unmarked) [Example 165, Cyclohexyl(6-methoxy-2-(2-(methoxymethyl)-7-methylquinoxalin-5-yl)benzo[d]thiazol-4-yl)methanol]"
19,2.8,"COCc1cnc2c(-c3nc4c(C(O)C5CCC5)cc(OC)cc4s3)cc(C)cc2n1 (centres unmarked) [Example 166, Cyclobutyl(6-methoxy-2-(2-(methoxymethyl)-7-methylquinoxalin-5-yl)benzo[d]thiazol-4-yl)methanol]"
20,4.5,"COCc1cnc2c(-c3nc4c(C(O)c5ccccn5)cc(OC)cc4s3)cc(C)cc2n1 (centres unmarked) [Example 167, (6-methoxy-2-(2-(methoxymethyl)-7-methylquinoxalin-5-yl)benzo[d]thiazol-4-yl)(pyridin-2-yl)methanol]"
